# Data reported in publication PMC6267684, “Pharmacokinetic evaluation of the PNC disassembler metarrestin in wild-type and Pdx1-Cre;LSL-Kras^G12D/+;Tp53^R172H/+ (KPC) mice, a genetically engineered model of pancreatic cancer” (Cancer Chemotherapy and Pharmacology, 2018).
# Columns and labels:
# [1] = test system: KPC and PC3M cells; experiment: UPLC–MS/MS measurement of cellular metarrestin concentration; format: cell-based; details: 1 and 10 µM, within 40 min
# [2] = test system: PNC in murine KPC tumors; experiment: PNC prevalence in KPC tumors (immunofluorescence with α-PTB1 antibodies); format: in vivo, KPC mice; details: after 14-day treatment with 25 mg/kg by oral gavage; untreated 38.2%
# Procedure: Blood samples were collected in K2EDTA tubes and plasma was harvested after centrifugation at 3000 rpm for 10 min. Tissue samples were weighed and flash-frozen for PK and PD mRNA expression analyses, embedded into OCT blocks for PNC determination and processed into FFPE blocks for histopathology assessment. All PK samples were stored at − 80 °C until analysis.
# To establish a dose–response relationship between intratumor exposure levels of metarrestin and mechanism of action of the drug in vivo, we first confirmed the ability of metarrestin to suppress PNC structures in murine pancreatic KPC tumors. The prevalence of PNC bodies (expressed as the fraction of cells containing one or more PNCs) was 38.2% in untreated murine KPC tumors (Fig. 4a) which was similar to the PNC prevalence in the previously examined NOD/IL2 gamma (null) PANC1 metastasis model (35.1%) and higher than in cancer cell lines derived from primary pancreatic tumors (average ~ 23.5%). […]
# Fig. 4 Intratumor metarrestin exposure correlates with PNC prevalence and mRNA expression levels of transcriptional regulators FOXA1 and FOXO6. a Metarrestin disassembles the peri-nucleolar compartment (PNC) in KPC tumors. […] Relative expression levels of FOXA1 and FOXO6 determined by qRT-PCR and normalized to reference genes. […]
# [3] = Preliminary toxicity profile, 25 mg/kg PO gavage for 14 days; details: for ALP (alkaline phosphatase) / ALT (alanine transaminase) / AST (aspartate transaminase): in U/L (unit assumed); for Weight: in g (unit assumed)
# [4] = females, 25 mg/kg, 14 days, in g/dL (unit assumed)
# [5] = females, N=10, 25 mg/kg, number of animals
# [6] = males, N=10, 25 mg/kg, number of animals
structure (smiles),measurement,setting,value
"N=c1c2c(-c3ccccc3)c(-c3ccccc3)n(Cc3ccccc3)c2ncn1[C@H]1CC[C@H](O)CC1 [metarrestin, Trans-4-(7-benzyl-4-imino-5,6-diphenyl-4,7-dihydro-3H-pyrrolo[2,3-d]pyrimidin-3-yl) cyclohexanol]","cellular levels, % of media concentrations",[1],40–100%
same,PNC prevalence in KPC tumors,[2],9.8%
same,"body weight, hypoactivity, liver function tests compared to vehicle controls",[3]; daily 25 mg/kg by oral gavage for 14 days,"not associated with any change in body weight, hypoactivity, or change in liver function tests"
same,CHOL (cholesterol),"[3]; females, 25 mg/kg, 14 days",123 ± 18.4
same,LD (lactate dehydrogenase),"[3]; females, 25 mg/kg, 14 days",495 ± 89.7
same,ALP (alkaline phosphatase),"[3]; females, 25 mg/kg, 14 days",136 ± 13.8
same,ALT (alanine transaminase),"[3]; females, 25 mg/kg, 14 days",100 ± 47.6
same,AST (aspartate transaminase),"[3]; females, 25 mg/kg, 14 days",100 ± 28.3
same,GLOB (globulin),[3]; [4],2.1 ± 0.13
same,TP (total protein),[3]; [4],5.2 ± 0.21
same,Weight,"[3]; females, Day 1, 25 mg/kg",23.1 ± 1.55
same,Weight Change,"[3]; females, Day 1 to 4, 25 mg/kg",0.0 ± 0.80
same,Weight Change,"[3]; females, Day 1 to 15, 25 mg/kg",2.7 ± 1.04
same,Weight Change,"[3]; females, Day 4 to 7, 25 mg/kg",1.2 ±0.67
same,Weight,"[3]; females, Day 7, 25 mg/kg",24.3 ± 1.32
same,Weight,"[3]; females, Day 15, 25 mg/kg",25.8 ± 1.70
same,Death,[3]; [5],0
same,Rough coat,[3]; [5],0
same,Scant feces,[3]; [5],0
same,CRE (creatinine),"[3]; males, 25 mg/kg, 14 days",0.09 ± 0.015
same,P04 (phosphorus),"[3]; males, 25 mg/kg, 14 days",10.2 ± 0.50
same,ALP (alkaline phosphatase),"[3]; males, 25 mg/kg, 14 days",84 ± 13.5
same,ALT (alanine transaminase),"[3]; males, 25 mg/kg, 14 days",137 ± 67.4
same,AST (aspartate transaminase),"[3]; males, 25 mg/kg, 14 days",88 ± 24.3
same,K (potassium),"[3]; males, 25 mg/kg, 14 days, in mmol/L (unit assumed)",7.3 ± 0.21
same,Weight,"[3]; males, Day 1, 25 mg/kg",31.4 ± 1.38
same,Weight Change,"[3]; males, Day 1 to 4, 25 mg/kg",1.1 ± 0.90
same,Weight Change,"[3]; males, Day 1 to 15, 25 mg/kg",3.1 ± 1.51
same,Weight Change,"[3]; males, Day 4 to 7, 25 mg/kg",0.9 ± 0.59
same,Weight,"[3]; males, Day 7, 25 mg/kg",33.3 ± 2.02
same,Weight,"[3]; males, Day 15, 25 mg/kg",34.4 ± 2.33
same,Cold to touch,[3]; [6],0
same,Death,[3]; [6],0
same,Hypoactivity,[3]; [6],0
same,Rough coat,[3]; [6],6
same,Scant feces,[3]; [6],0
same,Thin,[3]; [6],0
